Laboratory results published in US20210127673A1, “HERBICIDES” (SYNGENTA PARTICIPATIONS AG, priority 2016, published 2021).

What was measured:
Assay type in all cases: in vivo
Zea Mays (ZEAMX) [1] = assay: Post-emergence herbicidal activity, Zea Mays; parameters: key: 5=total damage to plant; 0=no damage to plant; conditions: 1000 g/ha, evaluated after 13 days, Test 2b
Method: (§1) Seeds of a variety of test species were sown in standard soil in pots: Triticum aestivium (TRZAW), Avena fatua (AVEFA), Alopecurus myosuroides (ALOMY), Echinochloa crus-galli (ECHCG), Lolium perenne (LOLPE), Zea Mays (ZEAMX), Abutilon theophrasti (ABUTH), Amaranthus retroflexus (AMARE) and Setaria faberi (SETFA). After 8 days cultivation (post-emergence) under controlled conditions in a glasshouse (at 24/16° C., day/night; 14 hours light; 65% humidity), the plants were sprayed with an aqueous spray solution derived from the formulation of the technical active ingredient in acetone/water (50:50) solution containing 0.5% Tween 20 (polyoxyethelyene sorbitan monolaurate, CAS RN 9005-64-5). The test plants were then grown in a glasshouse under controlled conditions (at 24/16° C., day/night; 14 hours light; 65% humidity) and watered twice daily. After 13 days, the test was evaluated (5=total damage to plant; 0=no damage to plant).

[2] = tested on: Abutilon theophrasti (ABUTH); assay: Post-emergence herbicidal activity, Abutilon theophrasti; parameters: key: 5=total damage to plant; 0=no damage to plant; conditions: 1000 g/ha, evaluated after 13 days, Test 2b
Method: as §1

[3] = tested on: Abutilon theophrasti (ABUTH); assay: Pre-emergence herbicidal activity, Abutilon theophrasti; parameters: key: 5=total damage to plant; 0=no damage to plant; conditions: 1000 g/ha, evaluated after 13 days, Test 1b
Method: (§2) Seeds of a variety of test species were sown in standard soil in pots: Triticum aestivium (TRZAW), Avena fatua (AVEFA), Alopecurus myosuroides (ALOMY), Echinochloa crus-galli (ECHCG), Lolium perenne (LOLPE), Zea Mays (ZEAMX), Abutilon theophrasti (ABUTH), Amaranthus retroflexus (AMARE) and Setaria faberi (SETFA). After cultivation for one day (pre-emergence) under controlled conditions in a glasshouse (at 24/16° C., day/night; 14 hours light; 65% humidity), the plants were sprayed with an aqueous spray solution derived from the formulation of the technical active ingredient in acetone/water (50:50) solution containing 0.5% Tween 20 (polyoxyethelyene sorbitan monolaurate, CAS RN 9005-64-5). The test plants were then grown in a glasshouse under controlled conditions (at 24/16°, day/night; 14 hours light; 65% humidity) and watered twice daily. After 13 days, the test was evaluated (5=total damage to plant; 0=no damage to plant).

Setaria faberi (SETFA) [4] = assay: Pre-emergence herbicidal activity, Setaria faberi; parameters: key: 5=total damage to plant; 0=no damage to plant; conditions: 1000 g/ha, evaluated after 13 days, Test 1b
Summary of the method: (§3)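 Pots of seeds were sprayed one day after sowing (pre-emergence) with compound in acetone/water (50:50) plus 0.5% Tween 20, then grown in a glasshouse at 24/16 °C day/night, 14 h light, 65% humidity. Damage scored 0–5 (5 = total damage) after 13 days.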

[5] = tested on: Amaranthus retroflexus (AMARE); assay: Pre-emergence herbicidal activity, Amaranthus retroflexus; parameters: key: 5=total damage to plant; 0=no damage to plant; conditions: 1000 g/ha, evaluated after 13 days, Test 1b
Method: as §2

[6] = tested on: Echinochloa crus-galli (ECHCG); assay: Pre-emergence herbicidal activity, Echinochloa crus-galli; conditions: 1000 g/ha, evaluated after 13 days, Test 1b
Summary of the method: as §3

Lolium perenne (LOLPE) [7] = assay: Post-emergence herbicidal activity, Lolium perenne; conditions: 1000 g/ha, evaluated after 13 days, Test 2b
Summary of the method: (§4)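 Pot-grown plants sprayed 8 days after sowing with compound in acetone/water (50:50) containing 0.5% Tween 20, in a glasshouse at 24/16 °C day/night, 14 h light, 65% humidity. Damage scored 13 days after spraying on a 0–5 scale (5 = total damage, 0 = none).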

Lolium perenne (LOLPE) [8] = assay: Pre-emergence herbicidal activity, Lolium perenne; conditions: 1000 g/ha, evaluated after 13 days, Test 1b
Summary of the method: as §3

Zea Mays (ZEAMX) [9] = assay: Pre-emergence herbicidal activity, Zea Mays; parameters: key: 5=total damage to plant; 0=no damage to plant; conditions: 1000 g/ha, evaluated after 13 days, Test 1b
Method: as §2

Setaria faberi (SETFA) [10] = assay: Post-emergence herbicidal activity, Setaria faberi; parameters: key: 5=total damage to plant; 0=no damage to plant; conditions: 1000 g/ha, evaluated after 13 days, Test 2b
Summary of the method: as §4

[11] = tested on: Echinochloa crus-galli (ECHCG); assay: Post-emergence herbicidal activity, Echinochloa crus-galli; parameters: key: 5=total damage to plant; 0=no damage to plant; conditions: 1000 g/ha, evaluated after 13 days, Test 2b
Summary of the method: as §4

[12] = tested on: Amaranthus retroflexus (AMARE); assay: Post-emergence herbicidal activity, Amaranthus retroflexus; parameters: key: 5=total damage to plant; 0=no damage to plant; conditions: 1000 g/ha, evaluated after 13 days, Test 2b
Method: as §1

## CN(C(=O)OC(C)(C)C)c1ccc(-c2cncc(F)c2)nc1C(F)(F)F [Compound B29, tert-butyl N-[6-(5-fluoro-3-pyridyl)-2-(trifluoromethyl)-3-pyridyl]-N-methyl-carbamate]
Zea Mays (ZEAMX) [1]
  ZEAMX damage score (0-5): 5
[2]
  ABUTH damage score (0-5): 1
[3]
  ABUTH damage score (0-5): 1
Setaria faberi (SETFA) [4]
  SETFA damage score (0-5): 4
[5]
  AMARE damage score (0-5): 2
[6]
  ECHCG damage score (0-5): 4
Lolium perenne (LOLPE) [7]
  LOLPE damage score (0-5): 3
Lolium perenne (LOLPE) [8]
  LOLPE damage score (0-5): 1
Zea Mays (ZEAMX) [9]
  ZEAMX damage score (0-5): 3
Setaria faberi (SETFA) [10]
  SETFA damage score (0-5): 5
[11]
  ECHCG damage score (0-5): 4
[12]
  AMARE damage score (0-5): 1

## CC(C)(C)OC(=O)Nc1ccc(-c2cncc(F)c2)nc1C(F)(F)F [Compound B30, tert-butyl N-[6-(5-fluoro-3-pyridyl)-2-(trifluoromethyl)-3-pyridyl]carbamate]
Zea Mays (ZEAMX) [1]
  ZEAMX damage score (0-5): 5
[2]
  ABUTH damage score (0-5): 0
[3]
  ABUTH damage score (0-5): 0
Setaria faberi (SETFA) [4]
  SETFA damage score (0-5): 4
[5]
  AMARE damage score (0-5): 2
[6]
  ECHCG damage score (0-5): 3
Lolium perenne (LOLPE) [7]
  LOLPE damage score (0-5): 4
Lolium perenne (LOLPE) [8]
  LOLPE damage score (0-5): 1
Zea Mays (ZEAMX) [9]
  ZEAMX damage score (0-5): 5
Setaria faberi (SETFA) [10]
  SETFA damage score (0-5): 5
[11]
  ECHCG damage score (0-5): 5
[12]
  AMARE damage score (0-5): 0

## CN(C(=O)OC(C)(C)C)c1ccc(-c2cncnc2)nc1C(F)(F)F [Compound B31]
Zea Mays (ZEAMX) [1]
  ZEAMX damage score (0-5): 5
[2]
  ABUTH damage score (0-5): 1
[3]
  ABUTH damage score (0-5): 0
Setaria faberi (SETFA) [4]
  SETFA damage score (0-5): 5
[5]
  AMARE damage score (0-5): 1
[6]
  ECHCG damage score (0-5): 3
Lolium perenne (LOLPE) [7]
  LOLPE damage score (0-5): 2
Lolium perenne (LOLPE) [8]
  LOLPE damage score (0-5): 1
Zea Mays (ZEAMX) [9]
  ZEAMX damage score (0-5): 4
Setaria faberi (SETFA) [10]
  SETFA damage score (0-5): 5
[11]
  ECHCG damage score (0-5): 4
[12]
  AMARE damage score (0-5): 1

## CC(C)(C)OC(=O)Nc1ccc(-c2cncnc2)nc1C(F)(F)F [Compound B32, tert-butyl N-[6-pyrimidin-5-yl-2-(trifluoromethyl)-3-pyridyl]carbamate]
Zea Mays (ZEAMX) [1]
  ZEAMX damage score (0-5): 5
[2]
  ABUTH damage score (0-5): 0
[3]
  ABUTH damage score (0-5): 0
Setaria faberi (SETFA) [4]
  SETFA damage score (0-5): 5
[5]
  AMARE damage score (0-5): 0
[6]
  ECHCG damage score (0-5): 3
Lolium perenne (LOLPE) [7]
  LOLPE damage score (0-5): 2
Lolium perenne (LOLPE) [8]
  LOLPE damage score (0-5): 1
Zea Mays (ZEAMX) [9]
  ZEAMX damage score (0-5): 5
Setaria faberi (SETFA) [10]
  SETFA damage score (0-5): 5
[11]
  ECHCG damage score (0-5): 4
[12]
  AMARE damage score (0-5): 0
